Experimental data reported in patent US10010560B2, “Small molecule HSP70 inhibitors” (THE TRUSTEES OF THE UNIVERSITY OF PENNSYLVANIA, priority 2014, dated 2018).

What was measured:
ubiquitin = assay: Western blot for ubiquitin in detergent fractions; assay type: cell-based, human; conditions: 451 Lu cells, 24 h, detergent insoluble fraction
From the text: (§1) FIGS. 4A-4L illustrate that PET-16 impairs proteostasis. […] There is a general absence of obvious nuclei in PET-16 treated tumor cells. […] FIGS. 4D and 4E are gels of whole-cell extracts (WCE) prepared from human melanoma A875 (D) or 451 Lu (E) cells treated with DMSO, PES or PET-16 that were immunoprecipitated using an anti-HSP70 antibody. The excised band of about 70 kDa shown in the Coomassie gel is HSP70, as confirmed by liquid chromatography—tandem mass spectrometry analysis. FIGS. 4F-4I are western blots of cell lines were treated with DMSO, PES or PET-16 for 24 h and immunoblotted for the indicated proteins. FIG. 4J are western blots of indicated melanomas pretreated with DMSO, PES or PET-16, followed by treatment with IL-6. Cell extracts were immunoblotted for the proteins indicated. Inhibition of IL-6 induced STAT3 and STAT1 phosphorylation by PET-16. FIG. 4K is a western blot analysis indicating altered processing of cathepsin L from the larger precursor form to the smaller mature form in the indicated cells following PET-16 treatment for 24 h. FIG. 4L is a western blot of the human melanoma 451 Lu cells treated with DMSO, PES or PET-16 for 24 h. Cells were harvested in 1% NP40-containing lysis buffer, fractionated into detergent-soluble and detergent-insoluble preparations, and assayed by western blot for ubiquitin. […]

HSP70 = HSP70 (Homo sapiens, UniProt P0DMV8); assay: Immunoprecipitation of HSP70 and co-precipitating proteins; assay type: cell-based; parameters: endogenous in cells; host or cells: A875 and 451 Lu human melanoma cells; conditions: IP-WB, A875 or 451 Lu cells
From the text: as §1

[1] = test system: human melanoma (A875) cells; assay: Viability of A875 melanoma cells versus IMR90 fibroblasts; assay type: cell-based; conditions: 10 μM, 24 h, A875 vs IMR90
Procedure: (§2) FIGS. 2A-2D illustrate the cytotoxicity of PET-16 to human tumor cells and its inhibition on E. coli growth. FIG. 2A is a line graph with data obtained from MTT assays of human melanoma cell lines treated with the indicated concentrations of PES or PET-16 for 72 h. The corresponding cell survival is normalized to vehicle (DMSO) treatment. Average and standard deviation (s.d.) from three independent experiments are shown. FIG. 2B are bar graphs of human melanoma (A875) cells and nontransformed human (IMR90) fibroblasts that were treated with DMSO, 10 μM PES or 10 μM PET-16 for 24 h. […] FIG. 2C is a line graph illustrating the growth of E. coli DH5α treated with different concentrations of PES or PET-16 for 6 h at 43° C. Error bars represent the s.d. of four independent experiments. FIG. 2D is a bar graph illustrating the growth of E. coli DH5α treated with DMSO, 30 μM PET-16 or 30 μM TPP for 6 h at 43° C. Error bars represent the s.d. of four independent experiments.

[2] = test system: human melanoma cell lines; assay: MTT assays of human melanoma cell lines; assay type: cell-based; conditions: several melanoma cell lines, 72 h
Procedure: as §2
MTT assays of human melanoma cell lines, as indicated, treated with the indicated concentration of PET-16 for 72 hours. The corresponding cell survival is normalized to vehicle (DMSO) treatment. Average and standard deviation (s.d.) from three independent experiments are shown.

[3] = test system: melanoma tumor cell lines; assay: Cellular ATP levels (AlamarBlue assay) in tumor cells; assay type: cell-based, human
From the text: FIGS. 5A-5F illustrates that PET-16 leads to loss of mitochondrial protein Cyclophilin D and impairs bioenergetics in tumor cells. FIGS. 5A-5D are western blots of HSP70, which is present at mitochondria of tumor H1299 cells but not in normal tissue, such as liver. The constitutively expressed 70 kDa family members, HSC70 and GRP75, are present in mitochondria of normal cells. Equal amounts of whole cell (WC)-, cytosolic (cyto)-, and mitochondrial (mito)-extracts prepared from cell lines H1299 (A, C) and MIA PaCa-2 (B) or normal (liver) cells (C, D) were examined by western blot analysis for the presence of the proteins indicated. […] Decreases of AlamarBlue® fluorescence, indicative of mitochondrial damage, are noted in PET-16-treated tumor cells (melanoma tumor cell line WM88 (-), melanoma tumor cell line WM3000 (×), melanoma tumor cell line WM852 (*), human melanoma 451 Lu cells (●), and melanoma tumor cell line WM989 (|), but not normal cells (nontransformed human fibroblasts (IMR90-♦) and primary melanocytes (▪)). Values are normalized to the vehicle-treated cells. Error bars represent standard deviation (s.d.) of four independent experiments.

[4] = test system: mouse melanoma cell line Yumm 1.7; assay: In vivo melanoma model, Yumm 1.7; conditions: single agent, C57BL/6 mice
Procedure: FIGS. 14A and 14B provide evidence that PET-16 impairs melanoma growth in vivo as a single agent. A well-recognized pulmonary metastatic model was utilized in which immunocompetent, wild-type C57BL/6 mice were injected with the metastatic mouse melanoma cell line Yumm 1.7, as indicated. […] FIG. 14A is a summary of the steps entailed in the model.

HSP70, sequence (P0DMV8 whole entry): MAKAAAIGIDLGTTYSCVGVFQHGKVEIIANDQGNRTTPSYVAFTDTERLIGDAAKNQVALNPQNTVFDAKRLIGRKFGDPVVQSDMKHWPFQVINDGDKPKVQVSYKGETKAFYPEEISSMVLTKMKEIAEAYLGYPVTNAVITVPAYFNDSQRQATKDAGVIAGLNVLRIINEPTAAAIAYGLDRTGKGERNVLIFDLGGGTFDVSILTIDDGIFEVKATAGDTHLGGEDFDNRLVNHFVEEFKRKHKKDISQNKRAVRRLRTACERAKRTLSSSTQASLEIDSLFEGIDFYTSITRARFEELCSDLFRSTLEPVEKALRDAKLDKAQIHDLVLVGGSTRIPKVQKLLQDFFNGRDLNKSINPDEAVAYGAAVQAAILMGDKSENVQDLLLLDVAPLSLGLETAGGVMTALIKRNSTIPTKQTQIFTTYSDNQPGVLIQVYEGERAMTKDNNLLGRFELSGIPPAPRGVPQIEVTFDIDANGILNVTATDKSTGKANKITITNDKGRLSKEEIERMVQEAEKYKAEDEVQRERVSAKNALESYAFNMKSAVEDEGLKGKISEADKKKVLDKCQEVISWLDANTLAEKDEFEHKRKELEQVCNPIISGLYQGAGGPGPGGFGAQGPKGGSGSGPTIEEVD

Q: How did the ubiquitinated polypeptides (ubiquitin) turn out when `C(#C[P+](c1ccccc1)(c1ccccc1)c1ccccc1)c1ccccc1.[Br-]` [PET-16, triphenyl(phenylethynyl)phosphonium bromide] was run?
A: Its ubiquitinated polypeptides is “accumulation”.

Q: What about the “interactions between HSP70 and client/substrate proteins” value (HSP70) of the same compound?
A: Its value is “loss of interactions”.

Q: What about the “cytotoxicity tumor versus nontransformed cells” value [1] of the same compound?
A: The value was “preferentially cytotoxic for tumor cells”.

Q: What about the IC50 [2] of the same compound?
A: Its IC50 is 0.5 to 1.5 µM.

Q: What about the “AlamarBlue fluorescence (mitochondrial function)” value [3] of the same compound?
A: Its value is “clear decrease”.

Q: What about the “melanoma growth in vivo” value [4] of the same compound?
A: Its value is “inhibits melanoma xenograft growth”.
